Results as given in patent US12319655B2, “RAF kinase inhibitors and methods of use thereof” (Deciphera Pharmaceuticals, LLC, priority 2021, dated 2025).
pIC50: −log10 of the molar value.

Assays:
[1] = target: B-Raf kinase (SEQ. ID NO: 2) (Homo sapiens (Human), UniProt P15056); test: Biochemical Assay for B-Raf (2); conditions: Table J, biochemical assay (2); read-out: BRAF (2)
Protocol: Biochemical Assay for B-Raf (2)
(§1) Activity of B-Raf kinase (SEQ. ID NO: 2) was determined spectroscopically using a coupled pyruvate kinase/lactate dehydrogenase assay that continuously monitors the ATP hydrolysis-dependent oxidation of NADH (e.g., Schindler et al., Science, 2000, 289, 1938-1942). Assays were conducted in 384-well plates (25 μL final volume) using 2 nM B-Raf (Sigma), 1.5 units pyruvate kinase, 2.1 units lactate dehydrogenase, 1 mM phosphoenol pyruvate, 0.7 mM NADH, 50 nM MEK (SignalChem), and 1 mM ATP in assay buffer (100 mM Tris, pH 7.5, 15 mM MgCl2, 0.5 mM DTT, 0.1% octyl-glucoside, 0.002% (w/v) BSA, and 0.002% Triton X-100). Inhibition of B-Raf was measured by adding serial diluted test compound (final assay concentration of 1% DMSO). A decrease in absorption at 340 nm was monitored hourly for 4 h at 30° C. on a multi-mode microplate reader (BioTek). The reaction rate was calculated using the 2 to 3 h time frame. The reaction rate at each concentration of compound was converted to percent inhibition using controls (i.e., reaction with no test compound and reaction with a known inhibitor) and IC50 values were calculated by fitting a four-parameter sigmoidal curve to the data using Prism (GraphPad software).

[2] = target: C-Raf kinase (SEQ. ID NO: 3) (Homo sapiens (Human), UniProt P04049, Y340D/Y341D); test: Biochemical Assay for C-Raf (2); conditions: Table J, biochemical assay (2); read-out: CRAF (2)
Sequence of C-Raf kinase (SEQ. ID NO: 3) (P04049 307-648 Y340D/Y341D): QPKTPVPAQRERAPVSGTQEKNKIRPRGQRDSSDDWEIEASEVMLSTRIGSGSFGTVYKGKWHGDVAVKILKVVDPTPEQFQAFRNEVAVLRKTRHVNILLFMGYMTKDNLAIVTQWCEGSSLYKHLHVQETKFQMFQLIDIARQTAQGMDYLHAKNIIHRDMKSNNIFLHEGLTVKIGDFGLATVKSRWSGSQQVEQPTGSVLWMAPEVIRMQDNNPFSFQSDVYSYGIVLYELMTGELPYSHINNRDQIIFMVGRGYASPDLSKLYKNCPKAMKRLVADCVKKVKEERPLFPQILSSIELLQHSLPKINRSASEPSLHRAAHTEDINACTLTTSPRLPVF
Protocol: Biochemical Assay for C-Raf (2)
as §1, with “of C-Raf” for “of B-Raf”, “NO: 3)” for “NO: 2)”, “using 3.84” for “using 2”, “nM C-Raf (Eurofins),” for “nM B-Raf (Sigma),”

WM3629 cells = test: WM3629 Cell Proliferation Assay (2); assay type: cell-based
Protocol: WM3629 Cell Proliferation Assay (2)
WM3629 cells (#WM3629-01-0001) are obtained from Rockland Immunochemicals Inc (Gilbertsville, PA). Briefly, cells were grown in MCDB 153 medium (Sigma, #M7403, St. Louis, MO) supplemented with 20% Leibovitz's L-15 (ThermoFisher #11415-064, Waltham, MA), 2% heat inactivated fetal bovine serum (ThermoFisher, #A3840001, Waltham, MA), 5 μg/mL Insulin (Bovine Pancreas) (Sigma, #I0516, St. Louis, MO), 1.68 mM Calcium Chloride (Sigma, #C-34006, St. Louis, MO) and 1% Penicillin/Streptomycin/L-Glutamine (ThermoFisher #10378016, Waltham, MA) at 37° C., 5% CO2, and 95% humidity. Cells are expanded until reaching 70-95% confluency at which point they are sub-cultured or harvested for assay use. Using the Beckman Coulter Echo 650, a serial dilution of test compound is dispensed into a 384-well black clear bottom plate in triplicate. One thousand one hundred twenty-five cells are added per well in 50 μL complete growth medium in the 384-well plate. Plates are incubated for 67-72 hours at 37° C., 5% CO2, and 95% humidity. At the end of the incubation, 10 μL of a 440 μM solution of resazurin (Sigma, #199303, St. Louis, MO) in PBS is added to each well of the plate and plates are incubated for an additional 3-6 hours at 37° C., 5% CO2, and 95% humidity. Plates are read on a Synergy2 or equivalent reader (Biotek, Winooski VT) using an excitation of 540 nm and an emission of 600 nm. Data is analyzed using Prism software (GraphPad, San Diego, CA) to calculate IC50 values.

Miapaca-2 cells = test: MiaPaca-2 Cell Proliferation Assay (2); assay type: cell-based; conditions: Homo sapiens, MIA PaCa-2, single agent
Protocol: MiaPaca-2 Cell Proliferation Assay (2)
Miapaca-2 cells (catalog #CRL-1420) are obtained from the American Type Culture Collect (ATTC, Manassas, VA). Briefly, cells were grown in DMEM supplemented with 10% characterized fetal bovine serum (Invitrogen, Carlsbad, CA), 2.5% New Zealand sourced horse serum and 1% Penicillin/Streptomycin/L-Glutamine at 37° C., 5% CO2, and 95% humidity. Cells are expanded until reaching 70-95% confluency at which point they are sub-cultured or harvested for assay use. A serial dilution of test compound is dispensed into a 384-well black clear bottom plate in triplicate. Seven hundred fifty cells are added per well in 50 μL complete growth medium in the 384-well plate. Plates are incubated for 67-72 h at 37° C., 5% CO2, and 95% humidity. At the end of the incubation, 10 μL of a 440 μM solution of resazurin (Sigma, St. Louis, MO) in PBS is added to each well of the plate and plates are incubated for an additional 5-6 h at 37° C., 5% CO2, and 95% humidity. Plates are read on a Synergy2 or equivalent reader (Biotek, Winooski VT) using an excitation of 540 nm and an emission of 600 nm. Data is analyzed using Prism software (GraphPad, San Diego, CA) to calculate IC50 values.

Sequence of B-Raf kinase (SEQ. ID NO: 2) (P15056 416-766): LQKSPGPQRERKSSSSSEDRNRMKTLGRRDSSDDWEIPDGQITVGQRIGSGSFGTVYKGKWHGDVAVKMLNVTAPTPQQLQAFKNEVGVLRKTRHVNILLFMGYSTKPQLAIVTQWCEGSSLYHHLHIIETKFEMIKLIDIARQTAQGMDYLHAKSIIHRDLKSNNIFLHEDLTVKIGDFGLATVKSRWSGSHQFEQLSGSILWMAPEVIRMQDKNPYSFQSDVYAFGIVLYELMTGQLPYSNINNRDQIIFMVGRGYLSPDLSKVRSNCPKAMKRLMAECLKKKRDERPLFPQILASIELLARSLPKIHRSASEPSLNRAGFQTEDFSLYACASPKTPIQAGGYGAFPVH

Row | SMILES | pIC50 [1] | pIC50 [2] | pIC50 (WM3629 cells) | pIC50 (Miapaca-2 cells)
1 | CNC(=O)c1cc(-c2cc(-c3cc(NC(=O)c4ccnc(C(C)(C)F)c4)ccc3Cl)ccn2)ccn1 [Example 485] | 6.30 to 7.00 | ≥ 7.00 | ≥ 7.00 | 5.00 to 6.00
2 | Cc1ccc(NC(=O)c2ccnc(C(C)(C)F)c2)cc1-c1cnnc(-c2ccnc(C(N)=O)c2)c1 [Example 486] | 6.30 to 7.00 | ≥ 7.00 | ≥ 7.00 | 5.00 to 6.00
3 | CNC(=O)c1cc(-c2cc(-c3cc(NC(=O)c4ccnc(C5(F)CC5)c4)ccc3C)ccn2)ccn1 [Example 487] | ≥ 7.00 | ≥ 7.00 | ≥ 7.00 | 5.00 to 6.00
4 | Cc1ccc(NC(=O)c2ccnc(C(C)(C)F)c2)cc1-c1cc(-c2ccnc(C(N)=O)c2)ncn1 [Example 488] | ≥ 7.00 | ≥ 7.00 | ≥ 7.00 | –
5 | [2H]C([2H])([2H])NC(=O)c1cc(-c2cc(-c3cc(NC(=O)c4ccnc(C(C)(C)F)c4)ccc3C)ccn2)ccn1 [Example 489] | ≥ 7.00 | ≥ 7.00 | ≥ 7.00 | 5.00 to 6.00
6 | Cc1ccc(NC(=O)c2ccnc(C(C)(C)F)c2)cc1-c1cc(-c2ccnc(C(N)=O)c2)ncc1F [Example 490] | 6.30 to 7.00 | ≥ 7.00 | ≥ 7.00 | –
7 | CC(C)(F)c1cc(C(=O)Nc2ccc(F)c(-c3ccnc(-c4ccnc(C(N)=O)c4)c3)c2)ccn1 [Example 491] | ≥ 7.00 | ≥ 7.00 | ≥ 7.00 | –
8 | CNC(=O)c1cc(-c2cc(-c3cc(NC(=O)c4cnnc(C(C)(F)F)c4)ccc3C)ccn2)ccn1 [Example 492] | ≥ 7.00 | ≥ 7.00 | ≥ 7.00 | –
9 | [2H]C([2H])([2H])NC(=O)c1cc(-c2cc(-c3cc(NC(=O)c4ccnc(C(C)(C)F)c4)ccc3C)cc(C)n2)ccn1 [Example 493] | 6.30 to 7.00 | ≥ 7.00 | ≥ 7.00 | 5.00 to 6.00
10 | CNC(=O)c1cc(-c2cc(-c3cc(NC(=O)c4ccnc(C(C)(C)F)n4)ccc3C)ccn2)ccn1 [Example 494] | 6.30 to 7.00 | ≥ 7.00 | ≥ 7.00 | 5.00 to 6.00
11 | CNC(=O)c1cc(-c2cc(-c3cc(NC(=O)c4cnnc(C(C)(C)F)c4)ccc3C)ccn2)ccn1 [Example 495] | ≥ 7.00 | ≥ 7.00 | ≥ 7.00 | 5.00 to 6.00
12 | CNC(=O)c1cc(-c2cc(-c3cc(NC(=O)c4ccnc(C5(F)CC5)c4)ccc3C)cc(C)n2)ccn1 [Example 496] | 6.30 to 7.00 | ≥ 7.00 | ≥ 7.00 | 5.00 to 6.00
13 | CNC(=O)c1cc(-c2cc(-c3cc(NC(=O)c4ccnc(C(C)(C)F)c4)c(F)cc3C)ccn2)ccn1 [Example 497] | 6.30 to 7.00 | 6.30 to 7.00 | ≥ 7.00 | 5.00 to 6.00
14 | [2H]C([2H])([2H])NC(=O)c1cc(-c2cc(-c3cc(NC(=O)c4ccnc(C5(F)CC5)c4)ccc3C)cc(C)n2)ccn1 [Example 498] | 6.30 to 7.00 | 6.30 to 7.00 | ≥ 7.00 | 5.00 to 6.00
15 | CNC(=O)c1cc(-c2cc(-c3cc(NC(=O)c4ccnc(C(C)(C)F)c4)ncc3C)ccn2)ccn1 [Example 499] | 6.30 to 7.00 | ≥ 7.00 | ≥ 7.00 | 5.00 to 6.00
16 | Cc1ccc(NC(=O)c2cn(C)nc2C(F)(F)F)cc1-c1cncc(-c2ccnc(NC(=O)C3CC3)c2)c1 [Example 500] | ≥ 7.00 | ≥ 7.00 | ≥ 7.00 | 5.00 to 6.00
17 | Cc1ccc(NC(=O)c2ccc(C(F)(F)F)cc2)cc1-c1ccnc(-c2ccnc(NC(=O)C3CC3)c2)c1 [Example 501] | ≥ 7.00 | ≥ 7.00 | ≥ 7.00 | 5.00 to 6.00
18 | Cc1ccc(NC(=O)c2cccc(C(F)(F)F)c2)cc1-c1ccnc(-c2ccnc(NC(=O)C3CC3)c2)c1 [Example 502] | ≥ 7.00 | ≥ 7.00 | ≥ 7.00 | 6.00 to 6.30
19 | Cc1ccc(NC(=O)c2cc(C(F)(F)F)ccc2F)cc1-c1ccnc(-c2ccnc(NC(=O)C3CC3)c2)c1 [Example 503] | ≥ 7.00 | ≥ 7.00 | ≥ 7.00 | 5.00 to 6.00
